Counter-ions that a name gives are not always drawn.
Key:
[1] = Pharmacokinetic profile of cannabinoid sulfate esters compared to CBD; details: for Cmax / Tmax / half-life: plasma
Source text: The PK profile of certain exemplary cannabinoid sulfate esters, including the half-life (T1/2), maximum plasma concentration (Cmax), and time to reach Cmax (Tmax), is shown compared to CBD in the table below.

[2] = pH 7.4; cited from earlier work
intraocular pressure = details: normotensive rabbit; cited from earlier work

| SMILES | Cmax [1] | Tmax [1] | half-life [1] | T1/2 ([1]; half-life) | Cmax ([1]; Cmax, maximum plasma concentration) | increase of aqueous solubility over the parent endocannabinoid [2] | intraocular pressure (intraocular pressure) |
| --- | --- | --- | --- | --- | --- | --- | --- |
| C=C(C)[C@@H]1CCC(C)=C[C@H]1c1c(O)cc(CCCCC)cc1OS(=O)(=O)O [CBD sulfate morpholinium salt, morpholin-4-ium (1′R,2′R)-6-hydroxy-5′-methyl-4-pentyl-2′-(prop-1-en-2-yl)-1′,2′,3′,4′-tetrahydro-[1,1′-biphenyl]-2-yl sulfate] | 10 ng/mL | 1 h | 32.7 h | – | – | – | – |
| C=C(C)[C@@H]1CCC(C)=C[C@H]1c1c(O)cc(CCCCC)cc1OS(=O)(=O)O [CBD sulfate piperazinium salt, piperazin-1-ium (1′R,2′R)-6-hydroxy-5′-methyl-4-pentyl-2′-(prop-1-en-2-yl)-1′,2′,3′,4′-tetrahydro-[1,1′-biphenyl]-2-yl sulfate] | – | 1 h | – | 3.0 h | 19 ng/mL | – | – |
| C=C(C)[C@@H]1CCC(C)=C[C@H]1c1c(O)cc(CCCCC)cc1OS(=O)(=O)[O-].[Na+] [CBD sulfate sodium salt, sodium (1′R,2′R)-6-hydroxy-5′-methyl-4 pentyl-2′-(prop-1-en-2-yl)-1′,2′,3′,4′-tetrahydro-[1,1′-biphenyl]-2-yl sulfate] | 12 ng/mL | 1 h | 2.9 h | – | – | – | – |
| C=C(C)[C@@H]1CCC(C)=C[C@H]1c1c(O)cc(CCCCC)cc1O [CBD, cannabidiol, reference compound] | 4.8 ng/mL | 0.5 h | 3.9 h | – | – | – | – |
| CCCCC/C=C\C/C=C\C/C=C\C/C=C\CCCC(=O)NCCOP(=O)(O)O [phosphate ester pro-drug of anandamide] | – | – | – | – | – | > 16 500 fold | reduced the intraocular pressure |

Source: patent publication US12655094B2, “Cannabinoid sulfate esters, their salts and uses thereof” (LONDON PHARMACEUTICALS AND RESEARCH CORPORATION, priority 2020, dated 2026)
